{"source": "paper PMC10439952", "about": "“JT002, a small molecule inhibitor of the NLRP3 inflammasome for the treatment of autoinflammatory disorders” (Scientific Reports, 2023)", "key": {"[1]": {"target": "T1, AIM2 inflammasome (Mus musculus, UniProt Q91VJ1)", "T1 construct": "host or cells: mouse BMDMs, LPS + transfected poly(dA:dT)", "T1 sequence (Q91VJ1 1-354)": "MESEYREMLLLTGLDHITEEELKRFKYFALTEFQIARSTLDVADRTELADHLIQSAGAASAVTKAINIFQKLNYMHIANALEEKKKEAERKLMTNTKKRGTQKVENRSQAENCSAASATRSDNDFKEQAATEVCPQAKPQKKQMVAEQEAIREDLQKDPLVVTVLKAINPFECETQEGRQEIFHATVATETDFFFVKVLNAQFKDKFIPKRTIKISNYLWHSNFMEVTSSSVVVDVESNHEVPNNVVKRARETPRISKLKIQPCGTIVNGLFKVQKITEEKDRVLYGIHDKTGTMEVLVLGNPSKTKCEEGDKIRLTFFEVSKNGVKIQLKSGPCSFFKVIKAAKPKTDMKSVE", "experiment": "IL-1β production in mouse BMDMs after AIM2 activation (LPS + poly(dA:dT))", "assay_type": "cell-based", "conditions": "mBMDMs, concentrations up to 10 µM", "protocol": "Cell viability was determined by addition of an equal volume of CellTiter-Glo® 2.0 reagent (Promega) to the remaining cells/supernatant in each well. Intracellular Caspase-1 activity was measured using the Caspase-Glo® assay (Promega) according to the manufacturer’s instructions. The biochemical capsase-1 assay was conducted at Reaction Biology Corporation (Malvern, USA). Human IL-1β, IL-1α, and TNFα and mouse IL-1β were measured in cell culture supernatants using homogeneous time resolved fluorescence assay kits (HTRF, Cisbio, Codolet, France). Human IL-18 was measured in cell culture supernatants using an ELISA kit (R&D Systems, Minneapolis, MN, USA). Plasma IL-1β concentrations were determined by Quantikine® ELISA (R&D Systems, Minneapolis, MN).\n4H). MS: m/z 433.1 (M+H+). […]\nflagellin, prepared in Opt iMEM and combined with Lipofectamine 2000. […] After priming Nlrp3 -/- mBMDMs with 100 ng/mL of LPS for 3- 5 h, cells were exposed to 100 ng/mL L18- MDP and incubated overnight.At the end of the incubation period of the assays above, plates were briefly centri fuged and hal f of the cell culture supern atant remo ved and either analysed i mmediately or stored at - 80°C for subs equent cytokine […]"}, "[2]": {"target": "T2, NLRP3 inflammasome assembly (ASC speck) (Mus musculus, UniProt Q8R4B8)", "T2 construct": "host or cells: mouse PBMCs; mouse bone-marrow derived macrophages; mouse whole blood (C57BL/6 in the ex vivo study)", "T2 sequence (Q8R4B8 whole entry)": "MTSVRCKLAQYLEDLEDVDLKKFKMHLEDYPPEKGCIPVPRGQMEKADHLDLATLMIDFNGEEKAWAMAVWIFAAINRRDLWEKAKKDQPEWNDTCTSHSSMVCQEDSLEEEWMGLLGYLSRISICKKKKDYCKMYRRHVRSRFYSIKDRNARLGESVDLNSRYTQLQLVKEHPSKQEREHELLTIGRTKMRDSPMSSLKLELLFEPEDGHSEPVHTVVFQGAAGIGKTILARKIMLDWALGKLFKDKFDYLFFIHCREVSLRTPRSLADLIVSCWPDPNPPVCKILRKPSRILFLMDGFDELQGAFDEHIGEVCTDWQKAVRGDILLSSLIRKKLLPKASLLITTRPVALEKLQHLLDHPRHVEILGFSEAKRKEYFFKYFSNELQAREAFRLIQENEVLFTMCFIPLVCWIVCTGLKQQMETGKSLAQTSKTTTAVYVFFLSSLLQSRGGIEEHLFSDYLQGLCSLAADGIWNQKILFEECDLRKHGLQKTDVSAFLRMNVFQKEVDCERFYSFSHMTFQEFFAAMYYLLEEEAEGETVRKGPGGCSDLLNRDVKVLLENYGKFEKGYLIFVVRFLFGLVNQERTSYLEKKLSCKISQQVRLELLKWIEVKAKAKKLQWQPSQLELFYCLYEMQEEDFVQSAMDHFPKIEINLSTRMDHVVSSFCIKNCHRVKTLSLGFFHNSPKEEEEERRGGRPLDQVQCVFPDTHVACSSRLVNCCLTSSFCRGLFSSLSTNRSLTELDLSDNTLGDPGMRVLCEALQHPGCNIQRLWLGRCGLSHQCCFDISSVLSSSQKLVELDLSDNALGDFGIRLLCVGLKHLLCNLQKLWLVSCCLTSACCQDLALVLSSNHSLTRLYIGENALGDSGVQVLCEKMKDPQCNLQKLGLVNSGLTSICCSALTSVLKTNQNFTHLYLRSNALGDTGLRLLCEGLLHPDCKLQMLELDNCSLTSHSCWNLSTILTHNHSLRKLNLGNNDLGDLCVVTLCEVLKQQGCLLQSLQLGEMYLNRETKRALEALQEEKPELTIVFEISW", "experiment": "Inhibition of ASC speck formation by immunofluorescence in LPS + nigericin treated mouse BMDMs", "assay_type": "cell-based", "protocol": "Mouse BMDMs (2.5 × 10^4 cells/well) were plated in Collagen-IV coated 96-well plates. On the day of the assay, cells were washed with serum-free media then primed with 100 ng/mL LPS for 3 h in DMEM/F12 (1:1) containing L-glutamine. JT002 or DMSO was added to each well and incubated at 37 °C for 30 min prior to stimulation with 10 μM nigericin for 1.5 h. Cells were briefly centrifuged, rinsed with PBS, and fixed with 4% formaldehyde in PBS overnight at 4 °C. Cells were blocked and permeabilized in PBS with 10% goat serum, 1% FBS, 0.5% Triton X-100 for 30 min at 37 °C and incubated with ASC antibody (Millipore-Sigma, Cat #04-147) overnight at 4 °C. Cells were incubated with anti-mouse IgG Alexa Fluor-488 for 1 h at 37 °C. Nuclei were stained with Hoechst 33342 in PBS for 5 min and imaged using a CellInsight CX7 High-Content Screening Platform (ThermoFisher) at Phenovista Biosciences (San Diego, CA, USA)."}}, "data": [{"smiles": "CO[C@@H]1COc2c(S(=O)(=O)NC(=O)Nc3c4c(cc5c3CCC5)CCC4)cnn2C1", "note": "[JT002]", "values": [{"measurement": "inhibition of IL-1β production after AIM2 activation", "setting": "[1]", "result": "no inhibition of IL-1β production"}, {"measurement": "IC50", "setting": "[2]; Mouse BMDM, read-out: Geo Av IC50, ASC specks", "result": 3, "unit": "nM"}, {"measurement": "ASC speck formation", "setting": "[2]; mBMDMs, 2 µM JT002 prior to NLRP3 activation", "result": "completely prevented ASC speck formation"}]}]}
